In patent US20050203174A1, “Combination therapies using leptomycin B” (Kosan Biosciences, Inc., priority 2004, published 2005):

Test system: colon cancer cell line DLD-1
Assay: Cell viability assay (CellTiter-Glo) and combination effect analysis of leptomycin B plus co-agent
Assay type: cell-based, Human
Settings: combination with leptomycin B, DLD-1 cells, average CI over fraction affected 0.2 to 0.9; for Combination Index, LMB First: 24 hours of LMB, then drug added and incubated for 48 hours; for Combination Index, Co-Agent First: drug alone for 24 hours followed by addition of LMB for 48 hours; for Combination Index, Simultaneous: simultaneous exposure to LMB and drug for 72 hours, constant ratio of IC50s
Experimental: The efficacy of a combination of leptomycin B and specific chemotherapeutic co-agents was determined. The additive, synergistic, or antagonistic effect of the combination of leptomycin B and a co-agent was calculated for each administration regimen using Calcusyn software (Biosoft, Cambridge, United Kingdom). This software calculates a combination index using the following algorithm: CI=[D]1/[Dx]1+[D]2/[Dx]2 where • CI is the combination index; • [D]1 and [D]2 are the concentrations of the two agents being tested (i.e., LMB and the co-agent) that, in combination provide a response of x % in the assay; and • [Dx]1 and [Dx]2 are the concentrations of the two agents that, when used alone, produce a response of x % in the assay.
A CI value of one means the combined effect of the two agents is additive. A CI value of less than one means that the two agents act synergistically. A CI value of greater than one means that the two agents act antagonistically.
The area under the curve where the fraction affected of cells (FA) ranged from 0.2 to 0.9 was calculated, to generate average CI values as shown in Table 1 for colon cancer cell line DLD-1.
Human colon adenocarcinoma cell line, DLD-1, was obtained from American Type Culture Collection (Manassas, Va.). […] Leptomycin B was produced by fermentation of a high producing isolate from Streptomyces sp. […] LMB is also available from commercial sources, such as Sigma-Aldrich. Other anti-cancer agents were either purchased commercially (e.g., from Sigma Chemical Co. (St. Louis, Mo.) or from Sequoia Research Products (Oxford, UK)).
Cells were seeded in duplicate in 96-well microtiter plates at a density of 4,000 cells per well and allowed to attach overnight. Cells were treated with LMB and the corresponding cytotoxic drug at varying concentrations, ranging from 0.5 picomolar (“pM”) to 50 micromolar (“μM”), for 3 days. Cell viability was determined using the CellTiter-Glo luminescent cell viability assay (Promega). For the drug combination assay, cells were seeded in duplicate in 96-well plates (4,000 cells/well). […] Based on the IC50 values of each individual drug, combined drug treatment was designed at constant ratios of two drugs, i.e., equivalent to the ratio of their IC50. Three treatment schedules were used: The first schedule used simultaneous exposure to both LMB and drug for 72 hours. In the second schedule, the cells were exposed to 24 hours of LMB. The drug was then added to the cells and incubated for 48 hours. In the third schedule, cells were exposed to the drug alone for 24 hours followed by addition of LMB for 48 hours. Cell viability was determined by the CellTiter-Glo luminescent cell viability assay. Synergism, additivity, or antagonism was determined by median effect analysis using the combination index (CI) calculated using Calcusyn (Biosoft, Cambridge, UK), as described above.

Compound | Combination Index, LMB First | Combination Index, Co-Agent First | Combination Index, Simultaneous
CCc1c2c(nc3ccc(OC(=O)N4CCC(N5CCCCC5)CC4)cc13)-c1cc3c(c(=O)n1C2)COC(=O)[C@]3(O)CC [Irinotecan, irinotecan] | 0.77 ± 0.05 | 0.50 ± 0.001 | 0.92 ± 0.08
COc1cccc2c1C(=O)c1c(O)c3c(c(O)c1C2=O)C[C@@](O)(C(=O)CO)C[C@@H]3O[C@H]1C[C@H](N)[C@H](O)[C@H](C)O1 [Doxorubicin, doxorubicin] | 0.96 ± 0.05 | 0.89 ± 0.01 | 0.84 ± 0.12
C=CCNC1=C2C[C@@H](C)C[C@H](OC)[C@H](O)[C@@H](C)/C=C(\C)[C@H](OC(N)=O)[C@@H](OC)/C=C\C=C(/C)C(=O)NC(=CC1=O)C2=O [17-AAG, 17-allylamino-17-demethoxygeldanamycin] | 1.13 ± 0.05 | 0.91 ± 0.09 | 1.15 ± 0.06
CC(O)(CS(=O)(=O)c1ccc(F)cc1)C(=O)Nc1ccc(C#N)c(C(F)(F)F)c1 (stereo not drawn) [Bicalutamide, bicalutamide] | 1.48 ± 0.32 | 1.05 ± 0.02 | 1.02 ± 0.01
Nc1ccn([C@@H]2O[C@H](CO)[C@@H](O)C2(F)F)c(=O)n1 [Gemcitabine, gemcitabine] | 1.18 ± 0.05 | 0.71 ± 0.31 | 0.97 ± 0.25
CC[C@H](C)[C@@H](COC(Cc1ccccc1)C(=O)N[C@@H](CCS(C)(=O)=O)C(=O)OC(C)C)NC[C@@H](N)CS (stereo partly drawn) [L-744832] | 0.82 ± 0.05 | 0.86 ± 0.11 | 0.84 ± 0.09
C/C1=C/C[C@@H](/C(C)=C/c2csc(C)n2)OC(=O)C[C@H](O)C(C)(C)C(=O)[C@H](C)[C@@H](O)[C@@H](C)CCC1 [Epo D, epothilone D] | 1.05 ± 0.03 | 0.92 ± 0.05 | 1.06 ± 0.10
O=C(CCCCCCC(=O)Nc1ccccc1)NO [SAHA, suberoylanilide hydroxamic acid] | 0.91 ± 0.04 | 1.03 ± 0.11 | 0.88 ± 0.04
CCC1(c2ccc(N)cc2)CCC(=O)NC1=O (stereo not drawn) [Aminoglutethimide, aminoglutethimide] | 0.82 ± 0.05 | 1.02 ± 0.18 | 0.89 ± 0.07
CC(=O)O[C@@]12CO[C@@H]1C[C@H](O)[C@@]1(C)C(=O)[C@H](O)C3=C(C)[C@@H](OC(=O)[C@H](O)[C@@H](NC(=O)OC(C)(C)C)c4ccccc4)C[C@@](O)([C@@H](OC(=O)c4ccccc4)[C@H]21)C3(C)C [Docetaxel, docetaxel] | 1.06 ± 0.04 | 0.95 ± 0.07 | 1.19 ± 0.14
